This note sets out measurements from PubChem BioAssay (NCI).

Test systems include SF-268 CNS; MDA-MB-435; NCI-H226 lung; NCI-H23 lung; LOX IMVI melanoma; T-47D breast; NCI-H522 lung; KM12 colon; PC-3 prostate; SN12C renal; SK-MEL-5 melanoma; A498 renal; OVCAR-4 ovarian; NCI/ADR-RES ovarian; BT-549 breast.
Assay in all cases: growth of human tumour cells (NCI), 48 h

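Exposure lasted 48 hours, with cells grown in 96-well plates and compounds tested at five concentrations. TGI: concentration producing complete growth inhibition.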

Consider `COc1cc(NS(C)(=O)=O)ccc1Nc1c2ccccc2nc2c1[nH]c1ccc(NC3OC(CO)C(O)C(O)C3O)cc12` (configuration not stated), for which the TGI in the assay on SF-268 CNS came out at 1.51 µM; in the assay on MDA-MB-435, 7.06 µM; with NCI-H226 lung, 0.201 µM; in the assay on NCI-H23 lung, 0.27 µM; in the assay with LOX IMVI melanoma it was 1.18 µM; in the assay on T-47D breast, 15.7 µM. Moreover, the TGI in the assay with NCI-H522 lung came out at 0.387 µM; with KM12 colon it was 1.21 µM; with PC-3 prostate, 3.6 µM; in the assay with SN12C renal it was 0.387 µM; with SK-MEL-5 melanoma, 1.31 µM; in the assay with A498 renal, 0.881 µM. In addition, the figures for the TGI in the assay with OVCAR-4 ovarian, with NCI/ADR-RES ovarian and in the assay with BT-549 breast were 4.66 µM, 45.8 µM and 5.69 µM, respectively.
`CN1C2CCC1CC(=CCOC(c1ccc(F)cc1)c1ccc(F)cc1)C2`: the TGI is 27 µM in the assay with SF-268 CNS; 25.7 µM with MDA-MB-435; 37.4 µM in the assay with NCI-H226 lung; 32 µM in the assay with NCI-H23 lung; 31.5 µM in the assay with LOX IMVI melanoma; 35.1 µM with T-47D breast. Moreover, the TGI with NCI-H522 lung was 24.7 µM; with KM12 colon it was 29.6 µM; in the assay on PC-3 prostate, 33.1 µM; in the assay with SN12C renal, 33.5 µM; in the assay on SK-MEL-5 melanoma, 23.2 µM; in the assay with A498 renal it was 28.7 µM. Moreover, the TGI with OVCAR-4 ovarian worked out at 31.9 µM; with NCI/ADR-RES ovarian, 40.1 µM; in the assay with BT-549 breast, 30.1 µM.
For `N#Cc1c(-c2ccc(Cl)cc2Cl)nc2[nH][nH]c(=S)n2c1=O`, the TGI in the assay with SF-268 CNS, in the assay on MDA-MB-435, in the assay on NCI-H226 lung, with NCI-H23 lung, in the assay on LOX IMVI melanoma and with T-47D breast was greater than 100 µM each time. The TGI in the assay on NCI-H522 lung, with KM12 colon, in the assay on PC-3 prostate, in the assay with SN12C renal, in the assay on SK-MEL-5 melanoma and in the assay on A498 renal was greater than 100 µM throughout. Also, the TGI in the assay with OVCAR-4 ovarian, in the assay with NCI/ADR-RES ovarian and in the assay with BT-549 breast was greater than 100 µM throughout.
For `O=[N+]([O-])c1ccc2c(c1)C1=C(CO2)Cc2ccccc2O1`, the TGI in the assay on SF-268 CNS is 63.5 µM; in the assay with MDA-MB-435, 80.5 µM; in the assay on NCI-H226 lung, greater than 100 µM; in the assay on NCI-H23 lung it was 59.2 µM; in the assay with LOX IMVI melanoma, 30.2 µM; in the assay on T-47D breast it was greater than 100 µM. Also, the TGI in the assay with NCI-H522 lung was 54.5 µM; in the assay with KM12 colon, 39.3 µM; in the assay on PC-3 prostate, 38.6 µM; in the assay on SN12C renal, 45.2 µM; in the assay with SK-MEL-5 melanoma, 29.7 µM; in the assay with A498 renal, greater than 100 µM. Also, the TGI with OVCAR-4 ovarian was greater than 100 µM; in the assay on NCI/ADR-RES ovarian, greater than 100 µM; in the assay with BT-549 breast, 61.9 µM.
Regarding `CCOC(=O)C12OC(CCC1=O)C(C(=O)OC)=C2C(=O)OC` (configuration not stated), the TGI in the assay on SF-268 CNS, with MDA-MB-435, in the assay with NCI-H226 lung, with NCI-H23 lung, with LOX IMVI melanoma and in the assay with T-47D breast was greater than 10 µM each time. The TGI in the assay with NCI-H522 lung, in the assay with KM12 colon, in the assay on PC-3 prostate, in the assay on SN12C renal, in the assay with SK-MEL-5 melanoma and in the assay with A498 renal was greater than 10 µM each time. The TGI in the assay with OVCAR-4 ovarian, with NCI/ADR-RES ovarian and in the assay on BT-549 breast was greater than 10 µM throughout.
As to `CCCCCCOC(=O)/C=C/[C@]1(CO)C/C(=C/CC(C(C)C)C(C)C)C(=O)O1`, the TGI with SF-268 CNS is 23.5 µM; with MDA-MB-435, 15.1 µM; in the assay with NCI-H226 lung, 16.7 µM; with NCI-H23 lung, 25 µM; in the assay on LOX IMVI melanoma, 24.6 µM; with T-47D breast, 37.5 µM. The TGI with NCI-H522 lung was determined as 25.9 µM; with KM12 colon, 33.3 µM; in the assay on PC-3 prostate it was 24.4 µM; in the assay with SK-MEL-5 melanoma it was 20.3 µM; with A498 renal it was 20.6 µM; in the assay on OVCAR-4 ovarian it was 36 µM. Moreover, the TGI stood at 28.1 µM in the assay with NCI/ADR-RES ovarian and 22.9 µM in the assay on BT-549 breast.
With `O=C(Oc1ccccn1)c1cc2cc(CCl)ccc2oc1=O`, the TGI is 39.2 µM in the assay on SF-268 CNS; greater than 100 µM in the assay on MDA-MB-435; greater than 100 µM in the assay on NCI-H226 lung; 62.7 µM in the assay on NCI-H23 lung; greater than 100 µM in the assay with LOX IMVI melanoma; greater than 100 µM in the assay with T-47D breast. In addition, the TGI with NCI-H522 lung is 30.3 µM; with KM12 colon, greater than 100 µM; with PC-3 prostate, 38.5 µM; in the assay with SN12C renal, 56.7 µM; with SK-MEL-5 melanoma, greater than 100 µM; in the assay with A498 renal, greater than 100 µM. Further, the TGI in the assay on OVCAR-4 ovarian turned out to be 55 µM; in the assay with NCI/ADR-RES ovarian, 75.5 µM; in the assay on BT-549 breast it was 49.7 µM.
On to `NC(=O)C(C(N)=O)=C(O)C(=O)/C=C(\O)c1ccccc1`, for which the TGI in the assay on SF-268 CNS, in the assay on MDA-MB-435, in the assay with NCI-H226 lung, in the assay on NCI-H23 lung, in the assay with LOX IMVI melanoma and in the assay with T-47D breast was greater than 100 µM throughout. Further, the TGI with NCI-H522 lung is 36.2 µM; in the assay on KM12 colon it was greater than 100 µM; with PC-3 prostate it was greater than 100 µM; in the assay with SN12C renal it was greater than 100 µM; with SK-MEL-5 melanoma, greater than 100 µM; in the assay on A498 renal, greater than 100 µM. Also, the TGI in the assay with OVCAR-4 ovarian, with NCI/ADR-RES ovarian and in the assay on BT-549 breast was greater than 100 µM throughout.
`O=c1c(/C=C/c2c(O)ccc3ccccc23)nnc2sc(-c3cccc(Br)c3)nn12`: the TGI in the assay with SF-268 CNS was greater than 100 µM; with MDA-MB-435, greater than 100 µM; in the assay on NCI-H23 lung, 40.3 µM; with LOX IMVI melanoma, 26.9 µM; in the assay on T-47D breast, 37.3 µM; with NCI-H522 lung it was 42.3 µM. In addition, the TGI with KM12 colon is 63.6 µM; with PC-3 prostate, greater than 100 µM; with SK-MEL-5 melanoma, 37.5 µM; in the assay on A498 renal, greater than 100 µM; with OVCAR-4 ovarian it was 31.9 µM; in the assay on NCI/ADR-RES ovarian, 88.4 µM. This molecule also showed a TGI with BT-549 breast of 56.7 µM.
As to `CC(=O)c1c(C)n([O-])c2cc(Cl)c(Cl)cc2[n+]1=O`, the TGI in the assay on SF-268 CNS is greater than 100 µM; in the assay on MDA-MB-435, 69.7 µM; with NCI-H23 lung it was greater than 100 µM; with LOX IMVI melanoma, 46.4 µM; in the assay on T-47D breast it was greater than 100 µM; with NCI-H522 lung, 27.9 µM. The TGI was 33.5 µM with KM12 colon; greater than 100 µM in the assay on PC-3 prostate; 86.2 µM with SN12C renal; 26.4 µM in the assay with SK-MEL-5 melanoma; 70.4 µM in the assay on A498 renal; 63.8 µM in the assay on OVCAR-4 ovarian. For the same molecule, the figures for the TGI in the assay on NCI/ADR-RES ovarian and in the assay on BT-549 breast were 75.1 µM and greater than 100 µM, respectively.
`COc1cc(C2c3cc4c(cc3OC3(OC)COC(=O)C23)OCO4)cc(OC)c1OC(C)=O` (configuration not stated): the TGI was greater than 100 µM in the assay on SF-268 CNS; 2.23 µM in the assay on MDA-MB-435; greater than 100 µM with NCI-H23 lung; greater than 82.2 µM with LOX IMVI melanoma; greater than 100 µM in the assay on T-47D breast; 2.43 µM in the assay on NCI-H522 lung. Further, the TGI with KM12 colon was greater than 100 µM; with PC-3 prostate it was greater than 36.1 µM; in the assay on SN12C renal, greater than 100 µM; in the assay on SK-MEL-5 melanoma, 34.6 µM; with A498 renal, 97.4 µM; in the assay with OVCAR-4 ovarian, greater than 100 µM. The TGI was 10.4 µM with NCI/ADR-RES ovarian and greater than 100 µM in the assay with BT-549 breast.
For the molecule `O=C(/C=C/c1cc2ccccc2o1)N1CCN(c2ccccn2)CC1`, the TGI in the assay on SF-268 CNS, in the assay with MDA-MB-435, in the assay with NCI-H23 lung, in the assay on LOX IMVI melanoma, in the assay on T-47D breast and with NCI-H522 lung was greater than 100 µM each time. Moreover, the TGI with KM12 colon, with PC-3 prostate, in the assay on SN12C renal, in the assay on SK-MEL-5 melanoma, in the assay with A498 renal and with OVCAR-4 ovarian was greater than 100 µM in each case. In addition, the TGI in the assay on NCI/ADR-RES ovarian and with BT-549 breast was greater than 100 µM throughout.
`CCOC(=O)c1nnc2c(C(=O)OCC)c3ccccc3n2c1N`: the TGI in the assay on SF-268 CNS, with MDA-MB-435, with NCI-H23 lung, in the assay on LOX IMVI melanoma, with T-47D breast and in the assay on NCI-H522 lung was greater than 100 µM throughout. Also, the TGI was 66.8 µM in the assay on KM12 colon; greater than 100 µM in the assay with PC-3 prostate; 81.6 µM in the assay on SN12C renal; 51.8 µM with SK-MEL-5 melanoma; 60.8 µM with A498 renal; greater than 100 µM in the assay on OVCAR-4 ovarian. Also, the TGI is 43.6 µM in the assay on NCI/ADR-RES ovarian and greater than 100 µM in the assay on BT-549 breast.
In the case of `Nc1nc(N)c2c3c(cnc2n1)CC(c1ccccc1)CC3` (configuration not stated), the TGI in the assay with SF-268 CNS was 58.5 µM; in the assay on MDA-MB-435 it was greater than 100 µM; with NCI-H226 lung, greater than 100 µM; in the assay on LOX IMVI melanoma it was 21.6 µM; with T-47D breast, 56.8 µM; in the assay with NCI-H522 lung, 35.9 µM. The TGI was greater than 100 µM in the assay on KM12 colon; greater than 100 µM in the assay on PC-3 prostate; 53.3 µM in the assay on SN12C renal; greater than 100 µM in the assay with SK-MEL-5 melanoma; greater than 100 µM in the assay on A498 renal; 41.9 µM with OVCAR-4 ovarian. Also, the results for the TGI in the assay on NCI/ADR-RES ovarian and with BT-549 breast were greater than 100 µM and 81.8 µM, respectively.
